Data on four compounds can be found in patent US20200407398A1, “Short Proline-Rich Lipopeptide Potentiates Minocycline and Rifampicin Against Multidrug-and Extensively Drug-Resistant Pseudomonas Aeruginosa” (priority 2018, published 2020).

Like-named read-outs stand apart in the source and are kept apart here. Peptide text beside a SMILES is read from it. * marks the point of attachment. Acetyl(1-adamantyl) = O=C(CC12CC3CC(CC(C3)C1)C2)*; Palmitoyl = CCCCCCCCCCCCCCCC(=O)*; Lauroyl = CCCCCCCCCCCC(=O)*; Octanoyl = CCCCCCCC(=O)* Some results are limits rather than exact numbers.

Data set [1] has as its system P. aeruginosa wild-type PAO1. The data set is classed as cell-based. The procedure: (§1) The synthesized SPRLPs were evaluated for their antibacterial potency against a panel of Gram-positive and Gram-negative bacteria (Tables 2 & 3). Some of the included pathogens were collected from patients visiting or admitted to participating Canadian hospitals through the CAN-ICU (27) and CANWARD (28) national surveillance studies. Antibacterial activity was assessed using minimum inhibitory concentration (MIC) against various clinical pathogens.
(§2) Isolates used in this study were either obtained from the American Type Culture Collection (ATCC), the Canadian National Intensive Care Unit (CAN-ICU) surveillance study (27) or the Canadian Ward Surveillance (CANWARD) study (28). Clinical isolates belonging to the CAN-ICU and CANWARD studies were recovered from patients suffering a presumed infectious disease entering or admitted in a participating medical center across Canada during the time of study. MDR P. aeruginosa strains in this study refer to those that are resistant to aminoglycosides, fluoroquinolones, cephalosporins, and carbapenems while XDR strains are those that are resistant to aminoglycosides, fluoroquinolones, cephalosporins, carbapenems, aztreonam and penicillin+β-lactamase inhibitor combination (39, 40).
(§3) Microbroth dilution susceptibility test following the Clinical and Laboratory Standards Institute (CLSI) guidelines (32) was performed to assess the in vitro antibacterial activity of SPRLPs. Overnight grown bacterial cultures were diluted in saline to achieve a 0.5 McFarland turbidity, followed by 1:50 dilution in Mueller-Hinton broth (MHB) for inoculation to a final concentration of 5×10^5 colony forming units/mL. The assay was done on a 96-well plate to which the agents of interest were 2-fold serially diluted in MHB and incubated with equal volumes of inoculum at 37° C. for 18 hours. MIC was determined as the lowest concentration to inhibit visible bacterial growth in form of turbidity, which was confirmed using EMax Plus microplate reader (Molecular Devices, USA) at a wavelength of 590 nm. The well containing MHB broth with or without bacterial cells was used as positive or negative control, respectively.

For data set [2], the system named is E. coli CAN-ICU 63074 (amikacin-intermediate resistant). The data set is classed as cell-based. The procedure: as §1, §2, §3
The test system of the next data set is P. aeruginosa ATCC 27853. It is filed as cell-based. The method, then: as §1, §2, §3
For another data set, the system named is E. coli ATCC 25922. It is filed as cell-based. The method, then:
as §1, §2, §3

Data set [3] deals with E. coli CANWARD-2011 97615 (gentamicin-, tobramycin-, ciprofloxacin-resistant) aac(3′)iia. It is filed as cell-based. The method, then: as §1, §2, §3
The subject of a further data set is S. aureus ATCC 29213. It is filed as cell-based. The procedure: as §1, §2, §3
The subject of the next data set is E. faecalis ATCC 29212. It is filed as cell-based. The procedure: as §1, §2, §3
Data set [4] relates to P. aeruginosa CAN-ICU 62308 (gentamicin-resistant). The data set is classed as cell-based. The procedure: as §1, §2, §3
The test system of the next data set is E. faecium ATCC 27270. It is filed as cell-based. The procedure: as §1, §2, §3
For another data set, the system named is K. pneumoniae ATCC 13883. The data set is classed as cell-based. The method, then: as §1, §2, §3
Data set [5] has as its system P. aeruginosa CANWARD-2011 96846 (gentamicin-, tobramycin-resistant). It is filed as cell-based. The method, then:
as §1, §2, §3

The subject of data set [6] is S. maltophilia CAN-ICU 62584. The data set is classed as cell-based. The method, then:
as §1, §2, §3

For data set [7], the system named is methicillin-resistant S. aureus ATCC 33592. It is filed as cell-based. The method, then: as §1, §2, §3
Data set [8] relates to methicillin-resistant S. epidermidis CAN-ICU 61589 (ceftazidime-resistant). The data set is classed as cell-based. The note with it: methicillin-resistant CAN-ICU 61589 (ceftazidime-resistant). The method, then: as §1, §2, §3
Data set [9] concerns A. baumannii CAN-ICU 63169. The data set is classed as cell-based. The procedure:
as §1, §2, §3

Data set [10] relates to methicillin-susceptible Staphylococcus epidermidis CANWARD-2008 81388. It is filed as cell-based. The note with it: methicillin-susceptible CANWARD-2008 81388. The method, then:
as §1, §2, §3

Data set [11] has as its system E. coli CAN-ICU 61714 (gentamicin-resistant). The data set is classed as cell-based. The procedure: as §1, §2, §3
Another data set deals with pig erythrocytes. The data set is classed as cell-based. The procedure:
Since PRAMPs are able to kill bacteria through membrane lysis, it is imperative to evaluate whether these synthesized SPRLPs also lyse eukaryotic membranes. The ability to lyse porcine red blood cells was assessed and the minimum concentration to result in 5% erythrocyte hemolysis (MHC) was reported (Tables 2 & 3). […] This greatly limits their therapeutic potential. […] However, all other SPRLPs were non-hemolytic (MHC>512 μg/mL).
The ability of SPRLPs to lyse eukaryotic red blood cells were quantified by the amount of hemoglobin released upon incubation with pig erythrocytes, following published protocols (37, 39). Fresh pig blood drawn from pig antecubital vein was centrifuged at 1000×g for 5 minutes at 4° C., washed with PBS three times and re-suspended in the same buffer, consecutively. Then, agents of interest were 2-fold serially diluted in PBS on 96-well plate and mixed with equal volumes of erythrocyte solution. Post 1-hour incubation at 37° C., intact cells were pelleted by centrifugation at 1000×g for 5 minutes at 4° C. The supernatant was then transferred to a new 96-well plate. The hemoglobin released was measured via EMax Plus microplate reader (Molecular Devices, USA) at 570 nm wavelength. Erythrocytes in PBS with or without 0.1% Triton X-100 was used as negative or positive control, respectively.

In data set [12] the test system is wild-type and MDR/XDR P. aeruginosa clinical isolates. The note with it: checkerboard assay; P. aeruginosa. The method, then:
We evaluated the activity of SPRLPs in combination with fifteen clinically-used antibiotics against P. aeruginosa. Antibiotics tested included fluoroquinolones (moxifloxacin, ciprofloxacin and levofloxacin), aminoglycosides (gentamicin, tobramycin and amikacin), cephalosporins (ceftazidime and cefotaxime), carbapenems (meropenem and doripenem), aztreonam, rifampicin, minocycline, colistin and fosfomycin. The SPRLPs were screened initially at a fixed concentration of 8 μg/mL (5 μM) in combination with antibiotics against wild-type P. aeruginosa PAO1. We assessed potentiation by at least a four-fold absolute MIC reduction of the antibiotic, after which synergism was further validated by a conventional checkerboard assay. A fractional inhibitory concentration (FIC) index of ≤0.5, 0.5<x≤4 or >4 was interpreted as synergistic, indifferent or antagonistic interaction, respectively (31). FIC index was obtained by adding the FIC values of the antibiotic and the SPRLP adjuvant. FIC of antibiotics was calculated by dividing the MIC of the antibiotic in the presence of the adjuvant by the MIC of the antibiotic alone. Similarly, the FIC of adjuvant was calculated via dividing the MIC of the adjuvant in the presence of the antibiotic by the MIC of the adjuvant alone.
as §2, §3
The assay was performed on a 96-well plate, to which the agents of interest was 2-fold serially diluted in working MHB. Prior to serial dilution, SPRLP was added to the working MHB media so that a fixed final concentration of 8 μg/mL (5 μM) SPRLP per well was achieved. To ensure that the assay was working, the MIC determination test of the studied antibiotic (without SPRLP) was included on the same plate. Similar MIC results between the assay comparator and an independent MIC determination test (on a different plate) ensured validity of the synergy test. Overnight grown bacterial cultures were diluted in saline to 0.5 McFarland turbidity, followed by 1:50 dilution in MHB (without SPRLP) and inoculation into each well to a final concentration of approximately 5×10^5 colony forming units/mL. Wells containing only MHB (without SPRLP) with or without bacterial cells were used as positive or negative control, respectively.

In the case of `N=C(N)NCCC[C@H](NC(=O)[C@@H]1CCCN1C(=O)[C@H](CCCNC(=N)N)NC(=O)[C@@H]1CCCN1C(=O)[C@H](CCCNC(=N)N)NC(=O)[C@@H]1CCCN1C(=O)CC12CC3CC(CC(C3)C1)C2)C(=O)N1CCC[C@H]1C(N)=O` [Ad-PRP, Adamantyl-CH2CO-PRPRPRP-NH2] ({Acetyl(1-adamantyl)}-PRPRPRP-NH2), the minimal inhibitory concentration (MIC) (as a rule, the smallest concentration in the dilution series that meets the test's criterion for growth inhibition) was above 512 µg/mL in data set [1]; above 128 µg/mL in data set [2]; above 128 µg/mL in the data set on P. aeruginosa ATCC 27853; above 128 µg/mL in the data set on E. coli ATCC 25922; above 128 µg/mL in data set [3]; above 128 µg/mL with S. aureus ATCC 29213. In addition, the minimum inhibitory concentration (MIC) (with E. faecalis ATCC 29212; in data set [4]; in the data set with E. faecium ATCC 27270; with K. pneumoniae ATCC 13883; in data set [5]; in [6]) was above 128 µg/mL in each case. The minimum inhibitory concentration (MIC) in data set [7], in data set [8], in data set [9], in data set [10] and in data set [11] was above 128 µg/mL in each case. For the same compound, the “MHC (minimum concentration that resulted in 5% red blood cell hemolysis)” value in the data set on pig erythrocytes (red cells of porcine) is above 512 µg/mL. Further, the “interaction with minocycline (in words)” value in data set [12] is given as “indifferent interaction”. Also, in data set [12], the “interaction with rifampicin (in words)” value is “indifferent interaction”.
As for `CCCCCCCC(=O)N1CCC[C@H]1C(=O)N[C@@H](CCCNC(=N)N)C(=O)N1CCC[C@H]1C(=O)N[C@@H](CCCNC(=N)N)C(=O)N1CCC[C@H]1C(=O)N[C@@H](CCCNC(=N)N)C(=O)N1CCC[C@H]1C(N)=O` [Compound C8-PRP, CH3(CH2)6CO-PRPRPRP-NH2] (Octanoyl-PRPRPRP-NH2), the MIC was above 512 µg/mL in data set [1]; above 128 µg/mL in data set [2]; above 128 µg/mL with P. aeruginosa ATCC 27853; above 128 µg/mL in the data set with E. coli ATCC 25922; above 128 µg/mL in [3]; above 128 µg/mL in the data set on S. aureus ATCC 29213. Besides, the MIC (in the data set with E. faecalis ATCC 29212; in [4]; in the data set on E. faecium ATCC 27270; in the data set with K. pneumoniae ATCC 13883; in data set [5]; in data set [6]) was above 128 µg/mL each time. In addition, the MIC in data set [7], in [8], in [9], in [10] and in [11] was above 128 µg/mL each time. Besides, in the data set on pig erythrocytes (red cells of porcine), the “MHC (minimum concentration that resulted in 5% red blood cell hemolysis)” value was above 512 µg/mL. The “interaction with minocycline (in words)” value in data set [12] was “indifferent interaction”. For the same compound, the “interaction with rifampicin (in words)” value in data set [12] is on record as “indifferent interaction”.
With `CCCCCCCCCCCC(=O)N1CCC[C@H]1C(=O)N[C@@H](CCCNC(=N)N)C(=O)N1CCC[C@H]1C(=O)N[C@@H](Cc1c[nH]c2ccccc12)C(=O)N1CCC[C@H]1C(=O)N[C@@H](CCCNC(=N)N)C(=O)N1CCC[C@H]1C(N)=O` [Compound C12-PWP, CH3(CH2)10CO-PRPWPRP-NH2] (Lauroyl-PRPWPRP-NH2), the MIC is 64 µg/mL in data set [1]; 128 µg/mL in data set [2]; above 128 µg/mL with P. aeruginosa ATCC 27853; 128 µg/mL in the data set with E. coli ATCC 25922; 128 µg/mL in [3]; 32 µg/mL in the data set on S. aureus ATCC 29213. In addition, the MIC with E. faecalis ATCC 29212 was 32 µg/mL; in data set [4] it was above 128 µg/mL; with E. faecium ATCC 27270 it was 32 µg/mL; with K. pneumoniae ATCC 13883, above 128 µg/mL; in data set [5], above 128 µg/mL; in data set [6] it was above 128 µg/mL. Also, the minimum inhibitory concentration (MIC) in data set [7] was 32 µg/mL; in data set [8], 16 µg/mL; in data set [9], 128 µg/mL; in data set [10], 16 µg/mL; in data set [11], 128 µg/mL. Besides, in the data set with pig erythrocytes, the “MHC (minimum concentration that resulted in 5% red blood cell hemolysis)” value turned out to be 64 µg/mL.
For the compound `CCCCCCCCCCCCCCCC(=O)N1CCC[C@H]1C(=O)N[C@@H](CCCNC(=N)N)C(=O)N1CCC[C@H]1C(=O)N[C@@H](CC(C)C)C(=O)N1CCC[C@H]1C(=O)N[C@@H](CCCNC(=N)N)C(=O)N1CCC[C@H]1C(N)=O` [Compound C16-PLP, CH3(CH2)14CO-PRPLPRP-NH2] (Palmitoyl-PRPLPRP-NH2), the minimal inhibitory concentration (MIC) was 32 µg/mL in data set [1]; 64 µg/mL in data set [2]; above 128 µg/mL in the data set with P. aeruginosa ATCC 27853; 128 µg/mL in the data set on E. coli ATCC 25922; 128 µg/mL in data set [3]; 64 µg/mL in the data set with S. aureus ATCC 29213. In addition, the minimum inhibitory concentration (MIC) is 64 µg/mL in the data set with E. faecalis ATCC 29212; above 128 µg/mL in data set [4]; 64 µg/mL with E. faecium ATCC 27270; 128 µg/mL with K. pneumoniae ATCC 13883; above 128 µg/mL in data set [5]; above 128 µg/mL in [6]. Besides, the MIC came out at 64 µg/mL in data set [7]; 64 µg/mL in data set [8]; 128 µg/mL in data set [9]; 32 µg/mL in [10]; 64 µg/mL in [11]. In addition, the “MHC (minimum concentration that resulted in 5% red blood cell hemolysis)” value with pig erythrocytes was found to be 16 µg/mL.
